Results taken from ChEMBL document CHEMBL5346955, “Discovery of HPG1860, a Structurally Novel Nonbile Acid FXR Agonist Currently in Clinical Development for the Treatment of Nonalcoholic Steatohepatitis” (J Med Chem, 2023).

Key:
Bile acid receptor [1] = molecular target: T1, Bile acid receptor (Homo sapiens, UniProt Q96RI1); test: Agonist activity at human GAL4-FXR-LBD expressed in HEK293T cells assessed as transcriptional activity measured after 16 to 20 hrs by luciferase reporter gene assay; type: cell-based
T1 sequence (Q96RI1 whole entry): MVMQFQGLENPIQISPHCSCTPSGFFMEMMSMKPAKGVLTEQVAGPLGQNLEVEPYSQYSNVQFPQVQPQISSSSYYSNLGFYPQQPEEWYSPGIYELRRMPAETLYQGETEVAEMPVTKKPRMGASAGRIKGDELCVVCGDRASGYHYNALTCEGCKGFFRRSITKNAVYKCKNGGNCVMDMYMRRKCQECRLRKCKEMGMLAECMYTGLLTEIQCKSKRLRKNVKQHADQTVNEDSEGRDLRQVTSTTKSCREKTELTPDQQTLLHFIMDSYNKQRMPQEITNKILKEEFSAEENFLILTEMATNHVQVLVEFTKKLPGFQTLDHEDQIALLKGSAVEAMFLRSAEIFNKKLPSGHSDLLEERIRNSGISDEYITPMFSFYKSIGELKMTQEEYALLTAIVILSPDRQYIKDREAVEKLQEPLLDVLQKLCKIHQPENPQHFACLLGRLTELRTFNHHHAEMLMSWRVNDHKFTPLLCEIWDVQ

Bile acid receptor [2] = molecular target: T1, Bile acid receptor; test: Agonist activity at GST-tagged human FXR-LBD in presence of luorescein-SRC2-2 coactivator peptide by TR-FRET assay
[3] = Metabolic stability in human liver microsomes assessed as half life at 1 uM measured upto 120 mins by UPLC/MS/MS analysis; type: ADME, Microsome
[4] = Metabolic stability in rat liver microsomes assessed as half life at 1 uM measured upto 120 mins by UPLC/MS/MS analysis; type: ADME, Microsome
[5] = Metabolic stability in dog liver microsomes assessed as half life at 1 uM measured upto 120 mins by UPLC/MS/MS analysis; type: ADME, Canis lupus familiaris, Microsome
[6] = Metabolic stability in cynomolgus monkey liver microsomes assessed as half life at 1 uM measured upto 120 mins by UPLC/MS/MS analysis; type: ADME, Macaca fascicularis, Microsome

## CC(C)c1onc(-c2c(Cl)cccc2Cl)c1CN1CCN(c2nc3ccc(C(=O)O)cc3s2)CC1
Bile acid receptor [1]
  EC50: 256 nM

## COc1cc(C(=O)O)cc2sc(N3CCN(Cc4c(-c5c(Cl)cccc5Cl)noc4C(C)C)CC3(C)C)nc12
Bile acid receptor [2]
  EC50: 37 nM
Bile acid receptor [1]
  EC50: 127 nM

## COc1cc(C(=O)O)cc2sc(N3CCN(Cc4c(-c5c(Cl)cccc5Cl)noc4C4CC4)CC3C)nc12 (stereo not drawn)
Bile acid receptor [2]
  EC50: 8 nM
Bile acid receptor [1]
  EC50: 41 nM

## COc1cc(C(=O)O)cc2sc(N3CCN(Cc4c(-c5c(Cl)cccc5Cl)noc4C4CC4)C[C@@H]3C)nc12
Bile acid receptor [2]
  EC50: 16 nM
Bile acid receptor [1]
  EC50: 124 nM
[3]
  half-life at 1 µM: 5.11 h
[4]
  half-life at 1 µM: 1.83 h
[5]
  half-life at 1 µM: 0.832 h
[6]
  half-life at 1 µM: 1.14 h

## CCC1CN(Cc2c(-c3c(Cl)cccc3Cl)noc2C(C)C)CCN1c1nc2c(OC)cc(C(=O)O)cc2s1 (stereo not drawn)
Bile acid receptor [2]
  EC50: 21 nM
Bile acid receptor [1]
  EC50: 85 nM
